Data reported in patent US7261906B2, “Anti-cancer therapy agent of arsenic hexoxide (As4O6) of a natural chemical substance and its pharmaceutical composition” (priority 1998, dated 2007).

Test system: 3T3-fibroblast cells
Test: Cytotoxicity in 3T3-fibroblast cells, time course (XTT method)
Format: cell-based, murine
Procedure: Cloned tumor cells of P388 leukemia, L1210 leukemia, L5178Y lymphoma, Colon26-M3.1 carcinoma, and B16-BL6 melanoma, from mice, and K562 leukemia, liver carcinoma HEP-G2, Hs578T breast cancer, AN-3-CA adenocarcinoma, DLD colon carcinoma, and HeLa epitheloid carcinoma, from human beings, were cultured in EMM, DMEM, or RMPI-1640 culture media containing 7.5% fetal bovine serum (FBS), as described in ATCC manual. […] Tumor cells in test wells were incubated in 5% CO2 incubator at 37° C. for 2 days.
For further study of the cytotoxicity of each substance on cloned tumor cells, 3T3-fibroblast cells were cultured in test wells as described in experiment 1.

## O1[As]2O[As]3O[As]1O[As](O2)O3 [HD-2, arsenic hexoxide (As4O6)]
3T3, 34 hours of treatment
  morphological observation of cells: complete necrosis of tumor cells
3T3, 48 hours after administration
  cytotoxicity, times as high as that of cisplatin: about 270 times
3T3, time course after the addition, XTT
  cytotoxic effect over time (FIG. 3): demonstrated cytotoxic effect starting from 4 hours
